Patent publication US10604527B2, “Pyrazine compounds for the treatment of hepatitis B infection” (Hoffmann-La Roche Inc., priority 2016, dated 2020)

Tested on: HBV
Experiment: HBV inhibition assay in HepG2.2.15 cells (extracellular HBV DNA by qPCR)
Assay type: cell-based
Conditions: Hepatitis B virus, 120 h, extracellular HBV DNA in culture supernatant by qPCR, five days after compound treatment
Method: HepG2.2.15 is a stably-transfected cell line containing the HBV genome. It is derived from the hepatoblastoma cell line Hep G2 (American Type Culture Collection, ATCC® HB-8065™) by the published procedures described in reference: M A Selles et al. Proc. Natl. Acad. Sci. USA 1987, 84, 1005-1009. The cell line was maintained in Dulbecco's modified Eagle's medium (DMEM)-F12 medium supplemented with 10% fetal bovine serum, 20 mM L-glutamine, 0.1 mM NEAA, 50 U/mL penicillin, 50 μg/mL streptomycin, and 0.3 mg/mL of G418.
HepG2.2.15 cells were seeded into 96-well plates at a density of 3×10^4 cells per well in 100 μL DMEM/F12 media (Life Science, Cat. #: 11320-033) supplemented with 2.5% fetal bovine serum, 20 mM L-glutamine, 0.1 mM NEAA, 50 U/mL penicillin, 50 U/mL streptomycin and cultured overnight at 37° C. The test compounds were serially half-log diluted in DMSO, then diluted 100 times in culture media. 100 μL diluted solution of tested compounds were added into the plates to reach 0.5% final concentration of DMSO in every well. Five days after compound treatment, culture supernatant was collected for further analysis.
For quantitative PCR detection of extracellular HBV DNA, culture supernatant was processed by 500 μg/mL Proteinase K (Sigma, Cat. #: P2308) digestion at 50° C. for 1 hour. After heat inactivation of the enzyme at 95° C. for 15 minutes, the samples were subjected to HBV DNA quantification by qPCR. The effective compound concentration at which HBV replication inhibited by 50% (EC50) was determined.

Structure (SMILES)	EC50 [nM]
C[C@H]1Cn2ncc(S(=O)(=O)N[C@@H]3CCOC3)c2CN1C(=O)Nc1cc(F)c(F)c(F)c1 [Example 30, (6S)-6-methyl-3-[[(3R)-tetrahydrofuran-3-yl]sulfamoyl]-N-(3,4,5-trifluorophenyl)-6,7-dihydro-4H-pyrazolo[1,5-a]pyrazine-5-carboxamide]	156
C[C@H]1Cn2ncc(S(=O)(=O)N3CC(F)(F)C3)c2CN1C(=O)Nc1cc(F)c(F)c(F)c1 [Example 31, (6S)-3-(3,3-difluoroazetidin-1-yl)sulfonyl-6-methyl-N-(3,4,5-trifluorophenyl)-6,7-dihydro-4H-pyrazolo[1,5-a]pyrazine-5-carboxamide]	22
C[C@H]1Cn2ncc(S(=O)(=O)N3CCOCC3)c2CN1C(=O)Nc1cc(F)c(F)c(F)c1 [Example 32, (6S)-6-methyl-3-morpholinosulfonyl-N-(3,4,5-trifluorophenyl)-6,7-dihydro-4H-pyrazolo[1,5-a]pyrazine-5-carboxamide]	179
C[C@H]1Cn2ncc(S(=O)(=O)N3CC[C@H](O)C3)c2CN1C(=O)Nc1cc(F)c(F)c(F)c1 [Example 33, (6S)-3-[(3S)-3-hydroxypyrrolidin-1-yl]sulfonyl-6-methyl-N-(3,4,5-trifluorophenyl)-6,7-dihydro-4H-pyrazolo[1,5-a]pyrazine-5-carboxamide]	145
C[C@H]1Cn2ncc(S(=O)(=O)C3CCC(O)C3)c2CN1C(=O)Nc1cc(F)c(F)c(F)c1 (stereo partly drawn) [Example 34, (6S)-3-(3-hydroxycyclopentyl)sulfonyl-6-methyl-N-(3,4,5-trifluorophenyl)-6,7-dihydro-4H-pyrazolo[1,5-a]pyrazine-5-carboxamide]	96
C[C@H]1Cn2ncc(N(C)C(=O)OCc3ccccc3)c2CN1C(=O)Nc1cc(F)c(F)c(F)c1 [Example 37, Benzyl N-methyl-N-[(6S)-6-methyl-5-[(3,4,5-trifluorophenyl)carbamoyl]-6,7-dihydro-4H-pyrazolo[1,5-a]pyrazin-3-yl]carbamate]	475
CC(=O)N(C)c1cnn2c1CN(C(=O)Nc1cc(F)c(F)c(F)c1)[C@@H](C)C2 [Example 38, (6S)-3-[acetyl(methyl)amino]-6-methyl-N-(3,4,5-trifluorophenyl)-6,7-dihydro-4H-pyrazolo[1,5-a]pyrazine-5-carboxamide]	457
COCCS(=O)(=O)N(C)c1cnn2c1CN(C(=O)Nc1cc(F)c(F)c(F)c1)[C@@H](C)C2 [Example 39, (6S)-3-[2-methoxyethylsulfonyl(methyl)amino]-6-methyl-N-(3,4,5-trifluorophenyl)-6,7-dihydro-4H-pyrazolo[1,5-a]pyrazine-5-carboxamide]	664
CCS(=O)(=O)N(C)c1cnn2c1CN(C(=O)Nc1cc(F)c(F)c(F)c1)[C@@H](C)C2 [Example 40, (6S)-3-[ethylsulfonyl(methyl)amino]-6-methyl-N-(3,4,5-trifluorophenyl)-6,7-dihydro-4H-pyrazolo[1,5-a]pyrazine-5-carboxamide]	169
C[C@H]1Cn2ncc(N(C)S(=O)(=O)C3CC3)c2CN1C(=O)Nc1cc(F)c(F)c(F)c1 [Example 41, (6S)-3-[cyclopropylsulfonyl(methyl)amino]-6-methyl-N-(3,4,5-trifluorophenyl)-6,7-dihydro-4H-pyrazolo[1,5-a]pyrazine-5-carboxamide]	86
